Reference: US20100210836A1, “SMALL MOLECULE INHIBITORS OF LYMPHOID TYROSINE PHOSPHATASE” (University of Southern California, priority 2009, published 2010)
Where two headings read alike, the source gives them in different places.

Tests used:
LYP/PTPN22 = biological target: T1, LYP/PTPN22 (Homo sapiens, UniProt Q9Y2R2); experiment: biochemical
T1 construct: catalytic domains of LYP (aa 2-309) and PTP-PEST (aa 2-323, PEST); 6xHis (N, cleaved yes); made in house; host or cells: E. coli BL21
T1 sequence (Q9Y2R2 2-309): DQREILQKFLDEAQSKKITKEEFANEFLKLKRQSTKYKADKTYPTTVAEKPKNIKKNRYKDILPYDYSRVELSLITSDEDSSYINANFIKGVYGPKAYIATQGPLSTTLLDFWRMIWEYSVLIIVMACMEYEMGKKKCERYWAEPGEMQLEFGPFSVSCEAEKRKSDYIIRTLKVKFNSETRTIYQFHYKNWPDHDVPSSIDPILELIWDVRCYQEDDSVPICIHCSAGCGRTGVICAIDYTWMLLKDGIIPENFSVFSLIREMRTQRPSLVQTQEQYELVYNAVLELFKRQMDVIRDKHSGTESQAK
Protocol: Chemical Library Screening for LYP Inhibitors. A library consisting of a highly diverse set of 4,000 compounds was screened in a 96-well format in an assay specific for LYP activity. […] The reaction mixture with the compounds was incubated for 25 min at 37° C. […] All assays were done in triplicate. The IC50 values were then determined for each drug from a plot of log [drug concentration] versus percentage of enzyme inhibition. Absorbance data were measured using a Molecular Devices Emax Precision Microplate reader.
Identification of Compounds as LYP Inhibitors. We initially screened a library of 4000 drug-like small-molecule compounds against LYP/PTPN22, using p-nitrophenyl phosphate (pNPP) as a substrate. The ability of the library members to inhibit LYP/PTPN22 catalyzed hydrolysis of pNPP was measured in a buffer containing 50 mM Bis-Tris pH 6.0, 1 mM DTT at 37° C.

PTP-PEST = biological target: T2, PTP-PEST (Homo sapiens, UniProt Q05209); experiment: Counter-screen phosphatase assay PTP-PEST; type: biochemical; conditions: read-out: PEST IC50
T2 sequence (Q05209 2-323): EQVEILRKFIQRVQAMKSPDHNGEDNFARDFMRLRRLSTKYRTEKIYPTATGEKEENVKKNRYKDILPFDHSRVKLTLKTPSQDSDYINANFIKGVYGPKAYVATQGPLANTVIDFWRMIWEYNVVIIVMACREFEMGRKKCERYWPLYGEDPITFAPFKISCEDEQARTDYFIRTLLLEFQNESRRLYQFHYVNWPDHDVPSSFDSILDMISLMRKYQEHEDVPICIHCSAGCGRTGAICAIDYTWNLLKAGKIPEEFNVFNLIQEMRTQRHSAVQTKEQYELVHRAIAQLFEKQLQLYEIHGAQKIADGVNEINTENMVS

[1] = LYP IC50, Table IV, analogues of E3P13
[2] = selectivity, ratio PEST IC50 / LYP IC50, Table IV
[3] = Table IV, analogues of E3P13, read-out: LYP IC50

IC50 (LYP/PTPN22; [1]) [µM]	IC50 (PTP-PEST) [µM]	Structure (SMILES)	further results
> 40		Cc1cc(C)c2cc([C@H](c3nnnn3C3CCCC3)N3CCCCC3)c(=O)[nH]c2c1 [compound 70]	
	40.5	COc1ccc(N2CCN([C@H](c3cc4cc(C)ccc4[nH]c3=O)c3nnnn3C3CCCC3)CC2)cc1 [compound 42]	PEST_LYP (LYP/PTPN22): 1.27; IC50 (LYP/PTPN22; LYP IC50): 31.7 µM
21.4	34.2	CCC(C)(C)n1nnnc1[C@@H](c1cc2ccc(C)cc2[nH]c1=O)N1CCCC2(CCCCC2)C1 [compound 34]	PEST_LYP (LYP/PTPN22; [2]): 1.6
> 40		COc1ccc2cc([C@H](c3nnnn3CC3CCCC3)N3CCCC4(CCCCC4)C3)c(=O)[nH]c2c1 [compound 55]	
30.5	39	Cc1ccc2[nH]c(=O)c([C@@H](c3nnnn3C3CCCC3)N3CCc4ccccc4C3)cc2c1 [compound 39]	PEST_LYP (LYP/PTPN22; [2]): 1.28
> 40		Cc1ccc2[nH]c(=O)c([C@H](c3nnnn3C3CCCC3)N3CCN4CCC[C@H]4C3)cc2c1 [compound 57]	
> 40		Cc1cc(C)c2[nH]c(=O)c([C@H](c3nnnn3C3CCCC3)N3CCCCC3)cc2c1 [compound 61]	
30.1	38.6	Cc1ccc2[nH]c(=O)c([C@H](c3nnnn3C3CCCC3)N3CCN(c4nc5ccccc5[nH]4)CC3)cc2c1 [compound 38]	PEST_LYP (LYP/PTPN22; [2]): 1.26
19.3	13.7	COc1ccc2cc([C@H](c3nnnn3Cc3ccccc3)N3CCCC4(CCCCC4)C3)c(=O)[nH]c2c1 [compound 27]	PEST_LYP (LYP/PTPN22; [2]): 0.71
> 40		COc1ccc2cc([C@H](c3nnnn3C3CCCC3)N3CCN(c4ccccc4)CC3)c(=O)[nH]c2c1 [compound 66]	
> 40		Cc1ccc2[nH]c(=O)c([C@@H](c3nnnn3C3CCCC3)N3CCOCC3)cc2c1 [compound 58]	
> 40		COc1ccc(N2CCN([C@H](c3cc4ccc(OC)cc4[nH]c3=O)c3nnnn3C3CCCC3)CC2)cc1 [compound 67]	
> 40		Cc1ccc2cc([C@H](c3nnnn3C3CCCC3)N3CCC[C@@H](C)C3)c(=O)[nH]c2c1C [compound 60]	
> 40		COc1ccc2cc([C@@H](c3nnnn3C3CCCC3)N3CCCCC3)c(=O)[nH]c2c1 [compound 64]	
> 40		Cc1ccc2[nH]c(=O)c([C@@H](c3nnnn3C3CCCC3)N3CCCC3)cc2c1 [compound 59]	
> 40		COc1ccc2cc([C@@H](c3nnnn3C3CCCC3)N3CCC(C)CC3)c(=O)[nH]c2c1 [compound 65]	
	38	Cc1ccc2[nH]c(=O)c([C@H](c3nnnn3C3CCCC3)N3CCN(c4ccc(F)cc4)CC3)cc2c1 [compound 45]	
> 40		Cc1ccc2[nH]c(=O)c([C@H](c3nnnn3C3CCCC3)N3CCC(O)CC3)cc2c1 [compound 78]	
> 40		Cc1ccc2cc([C@@H](c3nnnn3C3CCCC3)N3CCCCC3)c(=O)[nH]c2c1C [compound 63]	
> 40		Cc1ccc2cc([C@@H](c3nnnn3C3CCCC3)N3CCCCC3)c(=O)[nH]c2c1 [compound 68]	

Further lines, the compound ahead of its results:

Structure (SMILES)	IC50 (LYP/PTPN22; [1]) [µM]	IC50 (PTP-PEST) [µM]	further results
CCC(C)(C)n1nnnc1[C@@H](c1cc2cccc(C)c2[nH]c1=O)N1CCCC2(CCCCC2)C1 [compound 18]	13.4	12.9	PEST_LYP (LYP/PTPN22; [2]): 0.96
Cc1ccc2cc([C@H](c3nnnn3C3CCCC3)N3CCN(c4ccccc4)CC3)c(=O)[nH]c2c1 [compound 41]	31	~36.5	PEST_LYP (LYP/PTPN22; [2]): ~1.18
Cc1cc(C)c2[nH]c(=O)c(C(c3nnnn3C3CCCC3)N3CCN(C(c4ccccc4)c4ccccc4)CC3)cc2c1 (stereo not drawn) [compound 8]		9.57	PEST_LYP (LYP/PTPN22): 0.98; IC50 (LYP/PTPN22; LYP IC50): 9.72 µM
Cc1ccc2[nH]c(=O)c([C@H](c3nnnn3C3CCCC3)N3CCN(Cc4ccccc4)CC3)cc2c1 [compound 80]			IC50 (LYP/PTPN22; [3]): > 40 µM
COc1ccccc1N1CCN([C@H](c2cc3cc(C)ccc3[nH]c2=O)c2nnnn2C2CCCC2)CC1 [compound 50]			IC50 (LYP/PTPN22; [3]): > 40 µM
CCC(C)(C)n1nnnc1[C@@H](c1cc2cc(C)ccc2[nH]c1=O)N1CCCC2(CCCCC2)C1 [compound 9]	10.4	15.9	PEST_LYP (LYP/PTPN22; [2]): 1.53
CCOC(=O)C1CCN([C@H](c2cc3cc(C)ccc3[nH]c2=O)c2nnnn2C2CCCC2)CC1 [compound 79]	> 40		
Cc1ccc2cc(C(c3nnnn3C3CCCC3)N3CCN(C(c4ccccc4)c4ccccc4)CC3)c(=O)[nH]c2c1C (stereo not drawn) [compound 6]		9.8	PEST_LYP (LYP/PTPN22): 1.07; IC50 (LYP/PTPN22; LYP IC50): 9.13 µM
Cc1ccc2[nH]c(=O)c([C@@H](c3nnnn3C3CCCC3)N(CCc3ccccc3)Cc3ccccc3)cc2c1 [compound 16]	13.3	19.7	PEST_LYP (LYP/PTPN22; [2]): 1.46
Cc1ccc2[nH]c(=O)c([C@@H](c3nnnn3C3CCCC3)N(Cc3ccccc3)Cc3ccc(Cl)cc3)cc2c1 [compound 7]		17	
Cc1ccc2cc([C@H](c3nnnn3Cc3ccccc3)N3CCCC4(CCCCC4)C3)c(=O)[nH]c2c1C [compound 25]	18.1	17.8	PEST_LYP (LYP/PTPN22; [2]): 0.99
Cc1ccc2[nH]c(=O)c([C@H](c3nnnn3C3CCCC3)N3CCN(Cc4ccccc4)CC3)cc2c1 [compound 77]			IC50 (LYP/PTPN22; [3]): > 40 µM
Cc1cccc2cc([C@@H](c3nnnn3C3CCCC3)N3CCCCC3)c(=O)[nH]c12 [compound 76]	> 40		
Cc1ccc2[nH]c(=O)c([C@H](c3nnnn3C3CCCC3)N3CCN(c4ccc(O)cc4)CC3)cc2c1 [compound 74]			IC50 (LYP/PTPN22; [3]): > 40 µM
Cc1ccc2[nH]c(=O)c([C@@H](c3nnnn3C3CCCC3)N3CCCCCC3)cc2c1 [compound 54]	> 40		
Cc1cccc2cc([C@H](c3nnnn3C3CCCC3)N3CCC[C@@H](C)C3)c(=O)[nH]c12 [compound 72]	> 40		
Cc1ccc2[nH]c(=O)c([C@H](c3nnnn3C3CCCC3)N3CCC[C@@H](C)C3)cc2c1 [compound 24]		26.5	
CCN1CCN([C@H](c2cc3cc(C)ccc3[nH]c2=O)c2nnnn2C2CCCC2)CC1 [compound 52]			IC50 (LYP/PTPN22; [3]): > 40 µM
Cc1cc(C)c2[nH]c(=O)c([C@H](c3nnnn3C3CCCC3)N3CCC(C)CC3)cc2c1 [compound 62]	> 40		
Cc1cccc2cc([C@H](c3nnnn3C3CCCC3)N3CCN(C)CC3)c(=O)[nH]c12 [compound 75]	> 40		
Cc1cc(C)c2cc([C@H](c3nnnn3C3CCCC3)N3CCC(C)CC3)c(=O)[nH]c2c1 [compound 71]	> 40		
COc1ccc(CN(Cc2ccccc2)[C@@H](c2cc3cc(C)ccc3[nH]c2=O)c2nnnn2C2CCCC2)cc1 [compound 15]		15.1	
Cc1cccc2cc([C@H](c3nnnn3CC3CCCC3)N3CCCC4(CCCCC4)C3)c(=O)[nH]c12 [compound 51]	> 40		
Cc1ccc2[nH]c(=O)c([C@H](c3nnnn3C3CCCC3)N3CCN(C)CC3)cc2c1 [compound 56]			IC50 (LYP/PTPN22; [3]): > 40 µM
Cc1cccc2cc([C@H](c3nnnn3C3CCCCC3)N3CCN(Cc4ccccc4)CC3)c(=O)[nH]c12 [compound 69]	> 40		
Cc1ccc2[nH]c(=O)c([C@H](c3nnnn3C3CCCC3)N3CCN(C4CCCCC4)CC3)cc2c1 [compound 73]			IC50 (LYP/PTPN22; [3]): > 40 µM
Cc1ccc2[nH]c(=O)c([C@H](c3nnnn3C3CCCC3)N(C)C3CCCCC3)cc2c1 [compound 53]	> 40		
Cc1ccc2[nH]c(=O)c(C(c3nnnn3C3CCCC3)N(Cc3ccccc3)Cc3ccc(C(C)C)cc3)cc2c1 (stereo not drawn) [compound 1]		5.55	
